Laboratory results published in patent publication US8163737B2 (Vertex Pharmaceuticals Incorporated, priority 2006, dated 2012).

Target: endogenous CGRP receptor (Homo sapiens, UniProt O60894+Q16602)
Assay: CGRP functional antagonism using SK-N-MC-BLA (4C10), β-lactamase transcriptional reporter assay
Format: cell-based
Conditions: SK-N-MC (4C10) cells, inhibition of β-lactamase expression in the presence of 200 pM CGRP

Chain of endogenous CGRP receptor (Q16602 23-461): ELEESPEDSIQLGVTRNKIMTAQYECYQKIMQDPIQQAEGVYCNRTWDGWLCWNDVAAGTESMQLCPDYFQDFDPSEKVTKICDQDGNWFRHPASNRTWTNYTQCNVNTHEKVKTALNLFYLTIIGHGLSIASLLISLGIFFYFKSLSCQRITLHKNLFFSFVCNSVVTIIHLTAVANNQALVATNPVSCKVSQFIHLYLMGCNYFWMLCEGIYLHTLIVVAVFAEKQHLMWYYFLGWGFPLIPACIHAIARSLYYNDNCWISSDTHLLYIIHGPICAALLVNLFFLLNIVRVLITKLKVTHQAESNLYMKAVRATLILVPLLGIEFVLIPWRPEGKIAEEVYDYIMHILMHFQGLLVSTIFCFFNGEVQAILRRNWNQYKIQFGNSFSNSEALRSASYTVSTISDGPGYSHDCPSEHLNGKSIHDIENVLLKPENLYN
Chain of endogenous CGRP receptor (O60894 27-148): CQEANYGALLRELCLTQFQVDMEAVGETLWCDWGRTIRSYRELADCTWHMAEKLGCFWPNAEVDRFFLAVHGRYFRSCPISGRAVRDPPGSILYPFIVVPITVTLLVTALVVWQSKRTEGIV

| SMILES | IC50 [nM] |
| --- | --- |
| CN1CCC(N2CCN(c3ccccc3C3SC(CC(=O)N4CCC(N5CCc6ccccc6NC5=O)CC4)C(=O)N3CCC(C)(C)C)CC2)CC1 (stereo not drawn) [Compound 379] | < 1000 |
| CN1CCC(N2CCN(c3ccccc3C3SC(CC(=O)N4CCC(n5c(=O)[nH]c6ncccc65)CC4)C(=O)N3CCC(C)(C)C)CC2)CC1 (stereo not drawn) [Compound 381] | > 5000 |
| CN(C)CCCN(C)c1ccccc1C1SC(CC(=O)N2CCC(n3c(=O)[nH]c4ncccc43)CC2)C(=O)N1CCC(C)(C)C (stereo not drawn) [Compound 382] | < 1000 |
| CN(C)CCN(C)c1ccccc1C1SC(CC(=O)N2CCC(N3CCc4ccccc4NC3=O)CC2)C(=O)N1CCC(C)(C)C (stereo not drawn) [Compound 383] | 1000 to 5000 |
| CC(C)(C)CCN1C(=O)C(CC(=O)N2CCC(N3CCc4ccccc4NC3=O)CC2)SC1c1ccccc1N1CCC(N2CCCCC2)CC1 (stereo not drawn) [Compound 384] | > 5000 |
| CN(C)CCCN(C)c1ccccc1C1SC(CC(=O)N2CCC(N3CCc4ccccc4NC3=O)CC2)C(=O)N1CCC(C)(C)C (stereo not drawn) [Compound 385] | 1000 to 5000 |
| CC(C)(C)CCN1C(=O)C(CC(=O)N2CCC(n3c(=O)[nH]c4ncccc43)CC2)SC1c1ccccc1N1CCC(N2CCCCC2)CC1 (stereo not drawn) [Compound 387] | < 1000 |
| CN1CCN(c2ccccc2[C@@H]2S[C@H](CC(=O)N3CCC(N4CCc5ccccc5NC4=O)CC3)C(=O)N2CCC(C)(C)C)CC1 [Compound 388] | > 5000 |
| CC(C)(C)CCN1C(=O)C(CC(=O)N2CCC(n3c(=O)[nH]c4ncccc43)CC2)SC1c1cccc(F)c1N1CCN(C2CC2)CC1 (stereo not drawn) [Compound 390] | > 5000 |
| CC(C)(C)CCN1C(=O)C(CC(=O)N2CCC(N3CCc4ccccc4NC3=O)CC2)SC1c1cccc(F)c1N1CCN(CC(F)(F)F)CC1 (stereo not drawn) [Compound 392] | > 5000 |
| CC(C)(C)CCN1C(=O)C(CC(=O)N2CCC(n3c(=O)[nH]c4ncccc43)CC2)SC1c1cccc(F)c1N1CCN(CC(F)(F)F)CC1 (stereo not drawn) [Compound 393] | < 1000 |
| CC(C)N1CCN(c2c(F)cccc2[C@@H]2S[C@@H](CC(=O)N3CCC(N4CCc5ccccc5NC4=O)CC3)C(=O)N2CCC(C)(C)C)CC1 [Compound 395] | > 5000 |
| CC(C)N1CCN(c2c(F)cccc2[C@H]2S[C@@H](CC(=O)N3CCC(N4CCc5ccccc5NC4=O)CC3)C(=O)N2CCC(C)(C)C)CC1 [Compound 396] | 1000 to 5000 |
| CC(C)(C)CCN1C(=O)[C@H](CC(=O)N2CCC(N3CCc4ccccc4NC3=O)CC2)SC1c1cccc(F)c1N1CCNCC1 (stereo partly drawn) [Compound 398] | > 5000 |
| CC(C)(C)CCN1C(=O)[C@H](CC(=O)N2CCC(N3CCc4ccccc4NC3=O)CC2)SC1c1cccc(F)c1N1CCNCC1 (stereo partly drawn) [Compound 399] | > 5000 |
| CN(C)[C@H]1CCN(c2ccccc2C2SC(CC(=O)N3CCC(n4c(=O)[nH]c5ncccc54)CC3)C(=O)N2CCC(C)(C)C)C1 (stereo partly drawn) [Compound 404] | 1000 to 5000 |
| CN(c1ccccc1C1SC(CC(=O)N2CCC(n3c(=O)[nH]c4ncccc43)CC2)C(=O)N1CCC(C)(C)C)[C@@H]1CCN(Cc2ccccc2)C1 (stereo partly drawn) [Compound 408] | < 1000 |
| CN1CCN(c2ccccc2C2SC(CC(=O)N3CCC(N4CCc5ccccc5NC4=O)CC3)C(=O)N2CC(C)(C)C)CC1 (stereo not drawn) [Compound 410] | < 1000 |
| CC(C)(C)CCN1C(=O)C(CC(=O)N2CCC(N3CCc4ccccc4NC3=O)CC2)SC1c1cccc(F)c1N1CC(F)(C2CC2)C1 (stereo not drawn) [Compound 411] | 1000 to 5000 |
| CN1CCN(c2cccc(C3SC(CC(=O)N4CCC(N5CCc6ccccc6NC5=O)CC4)C(=O)N3CCC(C)(C)C)c2)CC1 (stereo not drawn) [Compound 412] | < 1000 |
| CN1CCN(c2cccc(C3SC(CC(=O)N4CCC(n5c(=O)[nH]c6ncccc65)CC4)C(=O)N3CCC(C)(C)C)c2)CC1 (stereo not drawn) [Compound 413] | < 1000 |
| CC(C)(C)CC1SC(CC(=O)N2CCC(n3c(=O)[nH]c4ncccc43)CC2)C(=O)N1c1ccccc1 (stereo not drawn) [Compound 417] | 1000 to 5000 |
| CN(C)C1CCN(c2ccccc2C2SC(CC(=O)N3CCC(n4c(=O)[nH]c5ncccc54)CC3)C(=O)N2CCC(C)(C)C)CC1 (stereo not drawn) [Compound 418] | > 5000 |
| CN(C)C1CCN(c2ccccc2C2SC(CC(=O)N3CCC(N4CCc5ccccc5NC4=O)CC3)C(=O)N2CCC(C)(C)C)CC1 (stereo not drawn) [Compound 419] | 1000 to 5000 |
| O=C(CC1SC(C2CCOCC2)N(c2ccccc2)C1=O)N1CCC(N2CCc3ccccc3NC2=O)CC1 (stereo not drawn) [Compound 420] | > 5000 |
| O=C(CC1SC(C2CCCCC2)N(c2ccc(N3CCOCC3)cc2)C1=O)N1CCC(N2CCc3ccccc3NC2=O)CC1 (stereo not drawn) [Compound 421] | < 1000 |
| O=C(CC1SC(C2CCOCC2)N(c2ccc(N3CCOCC3)cc2)C1=O)N1CCC(N2CCc3ccccc3NC2=O)CC1 (stereo not drawn) [Compound 422] | < 1000 |

| SMILES | IC50 [nM] |
| --- | --- |
| CC(C)(C)CC1SC(CC(=O)N2CCC(N3CCc4ccccc4NC3=O)CC2)C(=O)N1c1ccc(N2CCOCC2)cc1 (stereo not drawn) [Compound 423] | < 1000 |
| O=C(CC1SC(C2CCCCC2)N(c2ccccc2)C1=O)N1CCC(n2c(=O)[nH]c3ncccc32)CC1 (stereo not drawn) [Compound 424] | < 1000 |
| O=C(CC1SC(C2CCCCC2)N(c2ccc(N3CCOCC3)cc2)C1=O)N1CCC(n2c(=O)[nH]c3ncccc32)CC1 (stereo not drawn) [Compound 425] | < 1000 |
| O=C(CC1SC(C2CCOCC2)N(c2ccc(N3CCOCC3)cc2)C1=O)N1CCC(n2c(=O)[nH]c3ncccc32)CC1 (stereo not drawn) [Compound 426] | 1000 to 5000 |
| CC(C)(C)CC1SC(CC(=O)N2CCC(n3c(=O)[nH]c4ncccc43)CC2)C(=O)N1c1ccccc1N1CCCCC1 (stereo not drawn) [Compound 428] | > 5000 |
| CC(C)N1CCN(c2c(F)cccc2[C@@H]2S[C@](C)(CC(=O)N3CCC(N4CCc5ccccc5NC4=O)CC3)C(=O)N2CCC(C)(C)C)CC1 [Compound 430] | > 5000 |
| CC(C)N1CCN(c2cccc(Cl)c2C2S[C@H](CC(=O)N3CCC(N4CCc5ccccc5NC4=O)CC3)C(=O)N2CCC(C)(C)C)CC1 (stereo partly drawn) [Compound 433] | > 5000 |
| CC(C)N1CCN(c2cccc(Cl)c2C2S[C@@H](CC(=O)N3CCC(n4c(=O)[nH]c5ncccc54)CC3)C(=O)N2CCC(C)(C)C)CC1 (stereo partly drawn) [Compound 438] | < 1000 |
| CC(C)(C)CCN1C(=O)[C@H](CC(=O)N2CCC(N3CCc4ccccc4NC3=O)CC2)SC1c1cccc(F)c1N1CCC(N2CCCCC2)CC1 (stereo partly drawn) [Compound 439] | < 1000 |
| CC(C)(C)CCN1C(=O)[C@H](CC(=O)N2CCC(n3c(=O)[nH]c4ncccc43)CC2)S[C@H]1c1cccc(F)c1N1CCC(N2CCCCC2)CC1 [Compound 441] | < 1000 |
| CC(C)N1CCN(c2ncccc2C2S[C@@H](CC(=O)N3CCC(n4c(=O)[nH]c5ncccc54)CC3)C(=O)N2CCC(C)(C)C)CC1 (stereo partly drawn) [Compound 443] | < 1000 |
| CC(C)N1CCN(c2ncccc2C2S[C@@H](CC(=O)N3CCC(N4CCc5ccccc5NC4=O)CC3)C(=O)N2CCC(C)(C)C)CC1 (stereo partly drawn) [Compound 444] | > 5000 |
| CC(C)N1CCN(c2c(F)cccc2C2S[C@@](C)(CC(=O)N3CCC(n4c(=O)[nH]c5ncccc54)CC3)C(=O)N2CCC(C)(C)C)CC1 (stereo partly drawn) [Compound 445] | 1000 to 5000 |
| CC(C)(C)CCN1C(=O)C(CC(=O)N2CCC(Nc3ccc(Cl)cc3)CC2)SC1c1cccc(F)c1N1CCN(C(C)(C)C)CC1 (stereo not drawn) [Compound 448] | < 1000 |
| CC(C)(C)CCN1C(=O)[C@H](CC(=O)N2CCC(n3nnc4ccccc43)CC2)SC1c1cccc(F)c1N1CCN(C(C)(C)C)CC1 (stereo partly drawn) [Compound 451] | 1000 to 5000 |
| CC(C)(C)CCN1C(=O)[C@H](CC(=O)N2CCC(O)(c3ccc(F)cc3)CC2)S[C@@H]1c1cccc(F)c1N1CCN(C(C)(C)C)CC1 [Compound 453] | < 1000 |
| CC(C)(C)CCN1C(=O)[C@H](CC(=O)N2CCC(O)(c3ccc(F)cc3)CC2)SC1c1cccc(F)c1N1CCN(C(C)(C)C)CC1 (stereo partly drawn) [Compound 454] | > 5000 |
| CN(C)C1CCN(c2c(F)cccc2[C@H]2S[C@@H](CC(=O)N3CCC(n4c(=O)[nH]c5ncccc54)CC3)C(=O)N2CCC(C)(C)C)C1 (stereo partly drawn) [Compound 455] | 1000 to 5000 |
| CC(C)(C)CCN1C(=O)[C@H](CC(=O)N2CCC(n3c(=O)[nH]c4ncccc43)CC2)S[C@H]1c1cccc(F)c1N1CCC(N)C1 (stereo partly drawn) [Compound 465] | 1000 to 5000 |
| CC(C)(C)CCN1C(=O)[C@H](CC(=O)N2CCC(N3CCc4ccccc4NC3=O)CC2)SC1c1cccc(F)c1N1CCC(N)C1 (stereo partly drawn) [Compound 466] | < 1000 |
| CC(C)(C)CCN1C(=O)[C@H](CC(=O)N2CCC(N3Cc4ccccc4NC3=O)CC2)SC1c1cccc(F)c1N1CCC(N)C1 (stereo partly drawn) [Compound 467] | 1000 to 5000 |
| CC(C)(C)CCN1C(=O)[C@H](CC(=O)N2CCC(n3c(=O)[nH]c4ncccc43)CC2)S[C@H]1c1cccc(F)c1N1CCC(O)C1 (stereo partly drawn) [Compound 468] | < 1000 |
| CC(C)(C)CCN1C(=O)[C@H](CC(=O)N2CCC(N3Cc4ccccc4NC3=O)CC2)S[C@H]1c1cccc(F)c1N1CCC(N)C1 (stereo partly drawn) [Compound 472] | < 1000 |
| C[C@@H]1CN(c2c(F)cccc2[C@@H]2S[C@@H](CC(=O)N3CCC(N4CCc5ccccc5NC4=O)CC3)C(=O)N2CCC(C)(C)C)C[C@H](C)N1 [Compound 476] | > 5000 |
| CCCN1C(=O)[C@H](CC(=O)N2CCC(N3CCc4ccccc4NC3=O)CC2)SC1c1cccc(F)c1N1CCN(C(C)(C)C)CC1 (stereo partly drawn) [Compound 536] | < 1000 |
| CCCN1C(=O)[C@H](CC(=O)N2CCC(N3CCc4ccccc4NC3=O)CC2)SC1c1cccc(F)c1N1CCN(C(C)(C)C)CC1 (stereo partly drawn) [Compound 537] | < 1000 |
| CC(C)(C)CCN1C(=O)[C@H](CC(=O)N2CCC(n3c(=O)[nH]c4ncccc43)CC2)S[C@H]1c1cccc(F)c1N1CCNCC1 [Compound 546] | < 1000 |
